These results are taken from patent EP2151237A1, “PHARMACEUTICAL COMPOSITION COMBINING A NON-STEROIDAL ANTI-INFLAMMATORY AGENT AND AN ANTICONVULSANT AGENT” (priority 2007, dated 2008).

One series concerns other common receptors. Particulars: benzodiazepine, glutamate, NMDA, α1, α2, β-adrenergic, muscarinic, nicotinic, dopaminergic, histaminic, serotoninergic, opiate, canabinoid receptors, voltage-dependent calcium or sodium channels; cited from earlier work.
For series [1], the system named is α2δ, which are ancillary subunits of voltage-activated calcium channels. Particulars: cited from earlier work.
The subject of series [2] is A-carrageenin-induced hyperalgesia. The series is described as follows: A-carrageenin-induced peripheral inflammatory hyperalgesia in rat paw, paw latency (SLP). Particulars: for ED50: Rattus norvegicus, po, 2 h, read-out: DE50 value; for peak effect / maximum effect time: time after administration, ipsilateral paw SLP.
Procedure: In this study, an isobolographic analysis was conducted in order to test the interaction between Gabapentin and Meloxicam administered under three different conditions.
Sprague-Dawley male rats were used, with an approximate weight of 200-300 g. […] Rats were used once and they only received one dose of the drugs or the combination thereof.
Rats were placed in a spin cylinder to 4 rpm and one of their paws was connected to a computer terminal. After acclimatization for 1 hour, rats were administered 100 µl of 1% A-carrageenin solution on the plantar surface of one rear paw.
These fixed dosage ratios were selected by a DE50 value range for each drug and reciprocal ratio.
In order to determine the interaction nature, the dosage-derived relationship-response for the total dosage of Gabapentin and Meloxicam, was compared to the theoretical dose relationship-additive by a standard parallel line method.
The conditions of series [3]: cited from earlier work.
The conditions of series [4]: in its acid form; higher than Piroxicam; cited from earlier work.
The conditions of series [5]: cited from earlier work. This is another data set of the same source.
Series [6] is described as follows: Chromatographic testing of blood samples (plasma concentrations). It counts as in vivo, Sprague-Dawley male rats. Particulars: blood samples taken after the assessments. The source says:
After such assessments, rats were anesthetized with halothane and blood samples were taken for chromatographic testing.

The subject of the next series is rat stomachs. Particulars: cited from earlier work.
For series [7] the following is noted: cited from earlier work. The source holds these as a separate data set.

With `NCC1(CC(=O)O)CCCCC1` [Gabapentin], the “affinity to other common receptors” value in the series on other common receptors was “no affinity”. Also, the “affinity to α2δ proteins” value in series [1] is “high affinity”. Further, in series [2], the ED50 came out at 19.2 mg/kg and the “peak effect / maximum effect time” value is 120 min. For the same compound, the “contralateral paw response latencies” value in series [2] (non-swollen contralateral rear paw) is “did not show any alteration”. For the same compound, in [3] (after the administration), the “time to maximum plasma concentrations” value is ≤ 3 h. For the same compound, in series [3] (plasma), the “binding to plasmatic proteins” value is 3%.

On to `Cc1cnc(NC(=O)C2=C(O)c3ccccc3S(=O)(=O)N2C)s1` [Meloxicam, 4-hydroxy-2-methyl-N-(5-methyl-2-thiazolyl)-2H benzotiazine-3-carboxamide-1,1-dioxide], for which the “membrane solubility relative to Piroxicam” value in [4] is 10 fold. Also, in series [5] (approximately 50 minutes after the administration), the concentration was 1600 ng/mL. For the same compound, in [5] (in vivo), the “adherence to plasmatic proteins” value was 99%. For the same compound, the “part of the administered dose eliminated in urine” value in [5] (the rest is excreted in faeces) is “Around a half”. Moreover, the “effect of additional presence of Meloxicam on plasma concentrations of Gabapentin” value in series [6] is reported as “does not alter”. The gastric ulcerogenicity result with rat stomachs is reported as “minimal gastric ulcerogenicity”. In [2], the ED50 was found to be 0.46 mg/kg and the “peak effect / maximum effect time” value stood at 120 min. Besides, the solubility in water entry in series [7] was “virtually insoluble”.
